How the values were obtained:
[1] = target: T1, glucose 6-phosphate dehydrogenase (G6PD) (Leuconostoc mesenteroides, UniProt P11411); assay: G6PD enzyme inhibition assay (colorimetric, WST-1/1-methoxy PMS); assay type: biochemical; conditions: for IC50: Mean ± SD (n = 3), glucose 6-phosphate 3.0 mM, NADP+ 0.3 mM, read-out: IC50 on glucose 6-phosphate dehydrogenase (G6PD) reaction; for G6PD inhibition in words: qualitative statement
T1 construct: purchased Sigma-Aldrich (St. Louis, MO, USA)
T1 sequence (P11411 1-486): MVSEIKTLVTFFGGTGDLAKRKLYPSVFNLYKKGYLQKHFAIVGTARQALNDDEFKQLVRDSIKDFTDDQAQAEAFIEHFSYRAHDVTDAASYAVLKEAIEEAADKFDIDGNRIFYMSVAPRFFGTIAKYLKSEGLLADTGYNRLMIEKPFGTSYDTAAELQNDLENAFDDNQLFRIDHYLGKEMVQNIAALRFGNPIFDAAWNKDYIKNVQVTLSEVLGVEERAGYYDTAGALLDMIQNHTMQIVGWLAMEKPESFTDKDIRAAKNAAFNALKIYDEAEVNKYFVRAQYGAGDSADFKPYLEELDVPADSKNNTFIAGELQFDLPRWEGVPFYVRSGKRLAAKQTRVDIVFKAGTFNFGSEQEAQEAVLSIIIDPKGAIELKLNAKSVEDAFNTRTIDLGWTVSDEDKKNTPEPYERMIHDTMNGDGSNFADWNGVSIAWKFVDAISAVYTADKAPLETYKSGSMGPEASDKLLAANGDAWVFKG
Text: G6PD (EC 1.1.1.49) from Leuconostoc mesenteroides was purchased from Sigma-Aldrich (St. Louis, MO, USA). WST-1 and 1-methoxy-5-methylphenazinium methylsulfate (1-methoxy PMS) were purchased from Dojindo Laboratories (Mashiki, Kumamoto, Japan) and oxidized nicotinamide adenine dinucleotide phosphate (NADP^+) from Oriental Yeast Industries (Tokyo, Japan). Glucose 6-phosphate was purchased from Wako Pure Chemicals (Tokyo, Japan). Epigallocatechin gallate (EGCG) was purchased from Cayman Chemical Company (Ann Arbor, MI, USA). Thin layer chromatography (TLC) was carried out using a glass plate precoated with silica gel 60 F254 and RP-18 (Merck, Darmstadt, Germany), and spots were detected under UV light and visualized by spraying 50% sulfuric acid and potassium ferricyanide-ferric chloride reagents. NMR spectra were recorded in acetone-d6 on a Bruker AMX-500 (Karlsruhe, Germany) spectrometer at 500 MHz for proton and 125 MHz for carbon chemical shifts. Field desorption-MS spectra were recorded on a JEOL JMS-T100GCV spectrometer (Tokyo, Japan).
Enzyme assay was carried out by colorimetric method as described in literature with slight modification. The reaction mixture was prepared by adding 135 mM Tris-HCl buffer (pH 7.8, 675 μL), 30 mM glucose 6-phosphate (100 μL), 3 mM NADP^+ (100 μL), 20 mM MgCl2 (100 μL) and test materials in MeOH (15 μL). Reaction was initiated by adding 0.035 U/mL G6PD solution (10 μL) to the reaction mixture. Each reaction was carried out at 25 °C for 15 min and terminated by adding 1 mL of saturated aqueous NaCl solution. For determination of produced NADPH, 0.05 mM WST-1 (400 μL) and 0.025 mM 1-methoxy PMS (400 μL) were mixed to the reaction mixture (400 μL) and the absorbance was measured at 438 nm. EGCG was used as a positive control.

purified α-glucosidase = target: purified α-glucosidase; design: method as in PMID 20629879; conditions: previous study; cited from earlier work
[2] = read-out: Inhibition (%) of G6PD

Row | Compound | IC50 [1] | G6PD inhibition in words [1] | further results
1 | O=Cc1cc(Br)c(O)c(Br)c1 [Compound 1] | 76.6 ± 1.1 µM | – | –
2 | Oc1cc(COCc2cc(O)c(O)c(Br)c2Br)c(Br)c(Br)c1O [Compound 5] | 0.85 ± 0.1 µM | – | fold lower IC50 value than epigallocatechin gallate (EGCG) ([1]; G6PD IC50 relative to known inhibitor EGCG): 9.1 fold; IC50 (purified α-glucosidase): 1000 to 1200 µM
3 | COCc1cc(O)c(O)c(Br)c1 [Compound 3] | > 340 µM | low inhibition | inhibition at 340 µM [1, 2]: 35.7%
4 | OCc1cc(O)c(O)c(Br)c1 [Compound 2] | > 370 µM | low inhibition | inhibition at 370 µM [1, 2]: 37.6%
5 | O=C(O[C@@H]1Cc2c(O)cc(O)cc2O[C@@H]1c1cc(O)c(O)c(O)c1)c1cc(O)c(O)c(O)c1 [Epigallocatechin gallate, reference compound] | 7.7 ± 0.14 µM | – | –
6 | OCc1cc(O)c(O)c(Br)c1Cc1cc(O)c(O)c(Br)c1Br [Compound 4] | 4.01 ± 0.3 µM | – | –

Reference: article PMC3826149, “Red Algal Bromophenols as Glucose 6-Phosphate Dehydrogenase Inhibitors” (Marine Drugs, 2013)
